# Results as given in ChEMBL document CHEMBL1201862, “PubChem BioAssay data set” (2004).
# The source made the active and inactive calls.
# Tests used:
# [1] = HEp-2 cell cytotoxicity, dose response, cytotoxicity control for RSV inhibitor project, HTS (AID 2410); assay type: functional; settings: human respiratory syncytial virus
# Cytochrome P450 2C19 = Cytochrome P450 2C19 (Homo sapiens, UniProt P33261); test: Cytochrome panel assay with activity outcomes. Panel member name: p450-cyp2c19 Compounds with AC50 equal or less than 10 uM are considered active; assay type: functional
# Sequence of Cytochrome P450 2C19 (P33261 whole entry): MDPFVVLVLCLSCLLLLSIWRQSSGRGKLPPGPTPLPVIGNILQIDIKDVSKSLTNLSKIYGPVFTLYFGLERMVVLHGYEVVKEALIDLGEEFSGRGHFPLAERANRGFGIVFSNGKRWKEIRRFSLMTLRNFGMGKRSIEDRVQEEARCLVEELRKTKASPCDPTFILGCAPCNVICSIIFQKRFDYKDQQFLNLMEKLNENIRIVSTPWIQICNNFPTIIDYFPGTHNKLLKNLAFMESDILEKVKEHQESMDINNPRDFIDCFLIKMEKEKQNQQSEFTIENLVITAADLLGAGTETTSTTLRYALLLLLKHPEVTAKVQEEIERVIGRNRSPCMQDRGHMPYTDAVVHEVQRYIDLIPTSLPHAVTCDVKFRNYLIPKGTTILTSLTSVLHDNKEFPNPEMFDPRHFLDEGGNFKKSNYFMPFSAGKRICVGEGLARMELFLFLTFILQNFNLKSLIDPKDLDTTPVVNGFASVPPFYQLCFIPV
# [2] = inhibitors of intracellular T. cruzi replication, confirmation, NIH3T3 host cells, beta-gal luminescence (AID 2044); assay type: functional, cell-based;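 also: intracellular parasites grown in NIH/3T3 mouse fibroblasts as host cells; luminescent beta-galactosidase reporter signal from transgenic T. cruzi replicating inside host cells; inhibitors lower the luminescence signal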
# [3] = cytotoxicity toward NIH3T3 fibroblasts, dose response, counter-screen, cell-based, ATP luminescence, mouse fibroblasts (AID 2010); assay type: functional;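 also: cells exposed to compound for about 90 hours before reading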
# [4] = target: T1, Replicative DNA helicase DnaB (Mycobacterium tuberculosis, UniProt P9WMR3); test: DnaB intein splicing inhibitors, dose response, biochemical, cell-free fluorescence (AID 449749); assay type: functional
# T1 sequence (P9WMR3 whole entry): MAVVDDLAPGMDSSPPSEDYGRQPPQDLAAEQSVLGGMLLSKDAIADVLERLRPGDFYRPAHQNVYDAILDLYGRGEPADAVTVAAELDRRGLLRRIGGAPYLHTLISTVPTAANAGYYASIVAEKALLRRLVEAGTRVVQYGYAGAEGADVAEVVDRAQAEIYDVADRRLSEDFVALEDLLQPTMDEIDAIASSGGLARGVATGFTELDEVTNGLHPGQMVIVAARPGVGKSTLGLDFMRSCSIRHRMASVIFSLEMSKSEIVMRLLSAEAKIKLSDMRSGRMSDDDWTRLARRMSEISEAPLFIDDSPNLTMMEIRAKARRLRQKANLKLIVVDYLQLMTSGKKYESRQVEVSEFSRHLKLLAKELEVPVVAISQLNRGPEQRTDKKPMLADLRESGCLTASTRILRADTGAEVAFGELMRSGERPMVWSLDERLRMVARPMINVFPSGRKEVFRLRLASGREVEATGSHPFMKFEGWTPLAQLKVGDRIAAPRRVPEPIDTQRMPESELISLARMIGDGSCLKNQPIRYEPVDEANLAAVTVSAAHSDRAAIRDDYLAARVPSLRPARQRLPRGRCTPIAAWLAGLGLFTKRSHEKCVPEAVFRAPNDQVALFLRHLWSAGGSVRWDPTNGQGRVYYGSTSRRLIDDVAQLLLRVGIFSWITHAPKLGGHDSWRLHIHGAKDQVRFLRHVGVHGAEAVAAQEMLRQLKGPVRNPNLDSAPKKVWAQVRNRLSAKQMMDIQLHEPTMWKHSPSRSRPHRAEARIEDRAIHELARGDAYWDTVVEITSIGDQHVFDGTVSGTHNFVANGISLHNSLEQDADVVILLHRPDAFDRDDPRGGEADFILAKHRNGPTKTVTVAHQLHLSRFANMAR
# Protein RecA = target: T2, Protein RecA (Mycobacterium tuberculosis, UniProt P9WHJ3); test: Fluorescence Cell-Free Homogeneous Dose Retest to Identify Inhibitors of RecA-Intein Splicing Activity. [Related pubchem assays (depositor defined):AID2097, AID2223, AID489010, AID492950]; assay type: functional
# T2 sequence (P9WHJ3 whole entry): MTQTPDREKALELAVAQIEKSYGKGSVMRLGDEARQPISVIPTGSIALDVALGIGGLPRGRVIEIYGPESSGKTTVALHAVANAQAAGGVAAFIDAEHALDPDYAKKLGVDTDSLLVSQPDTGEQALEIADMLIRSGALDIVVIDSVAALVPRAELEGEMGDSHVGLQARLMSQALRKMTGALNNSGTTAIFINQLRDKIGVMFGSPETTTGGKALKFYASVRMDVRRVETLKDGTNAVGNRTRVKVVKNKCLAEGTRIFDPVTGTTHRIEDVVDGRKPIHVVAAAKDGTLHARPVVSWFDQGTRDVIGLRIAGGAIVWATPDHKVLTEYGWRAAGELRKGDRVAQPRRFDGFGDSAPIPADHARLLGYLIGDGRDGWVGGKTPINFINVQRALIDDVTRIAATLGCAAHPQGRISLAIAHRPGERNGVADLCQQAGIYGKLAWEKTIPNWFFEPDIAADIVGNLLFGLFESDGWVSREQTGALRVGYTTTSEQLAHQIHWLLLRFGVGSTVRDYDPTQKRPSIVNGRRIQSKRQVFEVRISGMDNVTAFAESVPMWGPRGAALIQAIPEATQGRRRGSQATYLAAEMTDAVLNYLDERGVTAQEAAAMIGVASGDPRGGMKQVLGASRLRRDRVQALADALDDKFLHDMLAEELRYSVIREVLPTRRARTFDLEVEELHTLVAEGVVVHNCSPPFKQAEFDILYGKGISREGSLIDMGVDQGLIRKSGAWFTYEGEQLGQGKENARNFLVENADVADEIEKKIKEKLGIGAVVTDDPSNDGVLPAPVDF
# Cytochrome P450 2C9 = Cytochrome P450 2C9 (Homo sapiens, UniProt P11712)
# Sequence of Cytochrome P450 2C9 (P11712 whole entry): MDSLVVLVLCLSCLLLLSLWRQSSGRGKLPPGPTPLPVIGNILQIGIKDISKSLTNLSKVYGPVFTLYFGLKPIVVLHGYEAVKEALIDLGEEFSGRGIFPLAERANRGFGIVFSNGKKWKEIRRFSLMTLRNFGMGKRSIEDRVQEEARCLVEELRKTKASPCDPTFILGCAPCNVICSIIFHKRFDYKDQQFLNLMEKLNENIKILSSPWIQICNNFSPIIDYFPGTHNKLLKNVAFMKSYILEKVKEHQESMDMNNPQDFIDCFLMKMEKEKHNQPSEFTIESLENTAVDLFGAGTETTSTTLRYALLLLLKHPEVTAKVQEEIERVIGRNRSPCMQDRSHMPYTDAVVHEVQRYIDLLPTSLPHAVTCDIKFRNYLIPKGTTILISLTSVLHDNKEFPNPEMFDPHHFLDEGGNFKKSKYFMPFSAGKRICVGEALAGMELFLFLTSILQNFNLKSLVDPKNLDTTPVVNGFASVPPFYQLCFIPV
# [5] = target: T3, Corticotropin-releasing factor receptor 2/Corticotropin-releasing factor-binding protein (Homo sapiens, UniProt P24387+Q13324); test: activators of CRF receptor 2 with binding protein – uHTS hits, confirmation (AID 602473); assay type: functional; settings: read-out: EC50_Mean
# T3 sequence (Q13324 whole entry): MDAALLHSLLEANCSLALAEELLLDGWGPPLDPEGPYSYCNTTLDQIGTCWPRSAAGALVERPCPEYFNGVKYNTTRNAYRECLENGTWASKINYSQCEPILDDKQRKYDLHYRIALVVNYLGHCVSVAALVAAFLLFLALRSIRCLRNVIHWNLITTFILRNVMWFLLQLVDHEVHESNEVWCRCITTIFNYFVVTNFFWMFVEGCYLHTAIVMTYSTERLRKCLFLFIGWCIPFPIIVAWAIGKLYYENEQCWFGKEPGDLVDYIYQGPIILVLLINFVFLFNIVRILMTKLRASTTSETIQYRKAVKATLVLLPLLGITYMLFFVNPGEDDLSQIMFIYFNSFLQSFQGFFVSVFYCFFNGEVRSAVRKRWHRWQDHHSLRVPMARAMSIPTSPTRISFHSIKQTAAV
# T3 sequence (P24387 whole entry): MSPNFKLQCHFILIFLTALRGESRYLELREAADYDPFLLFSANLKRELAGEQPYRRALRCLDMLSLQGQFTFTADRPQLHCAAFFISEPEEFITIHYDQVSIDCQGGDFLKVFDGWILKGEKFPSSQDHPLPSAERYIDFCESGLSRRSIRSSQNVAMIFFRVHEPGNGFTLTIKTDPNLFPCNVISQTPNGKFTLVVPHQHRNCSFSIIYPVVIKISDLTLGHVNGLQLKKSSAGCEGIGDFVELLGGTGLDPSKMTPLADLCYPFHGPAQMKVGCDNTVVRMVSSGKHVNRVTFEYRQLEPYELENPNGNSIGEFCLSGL
# [6] = target: T3, Corticotropin-releasing factor receptor 2/Corticotropin-releasing factor-binding protein; test: Dose Response confirmation of uHTS hits for small molecule antagonists of the CRF-binding protein and CRF-R2 receptor complex.; assay type: functional; settings: read-out: IC50_Mean
# Cytochrome P450 2D6 = Cytochrome P450 2D6 (Homo sapiens, UniProt P10635);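 also: CYP2D6 member of a cytochrome P450 panel assay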
# Sequence of Cytochrome P450 2D6 (P10635 whole entry): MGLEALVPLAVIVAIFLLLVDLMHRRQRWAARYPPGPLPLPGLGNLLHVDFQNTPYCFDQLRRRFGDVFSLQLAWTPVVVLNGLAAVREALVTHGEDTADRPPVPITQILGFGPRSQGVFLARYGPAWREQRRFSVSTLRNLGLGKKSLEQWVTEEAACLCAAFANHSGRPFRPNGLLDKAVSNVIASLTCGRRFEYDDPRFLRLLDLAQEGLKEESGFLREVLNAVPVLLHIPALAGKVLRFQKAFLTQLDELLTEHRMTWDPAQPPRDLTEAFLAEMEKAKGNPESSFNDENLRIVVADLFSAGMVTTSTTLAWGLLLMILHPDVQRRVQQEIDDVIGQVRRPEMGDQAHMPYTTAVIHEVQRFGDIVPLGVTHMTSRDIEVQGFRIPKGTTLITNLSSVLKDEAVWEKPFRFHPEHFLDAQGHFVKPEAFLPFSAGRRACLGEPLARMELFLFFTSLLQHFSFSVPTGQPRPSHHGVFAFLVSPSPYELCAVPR
compound,measurement,setting,value
COc1ccc(-c2cc(C(F)(F)F)nc(N3CCCCCC3)n2)cc1,CC50,[1],28.2 µM (active)
C[N@+]1(CCC(=O)c2ccccc2)CC[C@H]2CC[C@H](C2)C1,AC50,Cytochrome P450 2C19,inconclusive
CC(C)(C)c1ccccc1OCCN1CCCC1,EC50,[2],1.35 µM (active)
same,AC50,Cytochrome P450 2C19; read-out: AC50,35.5 µM (inconclusive)
same,EC50,[3],> 60 µM (not active)
O=C(O)c1ccc([N+](=O)[O-])c2c1C(=O)c1ccccc1C2=O,AC50,[4],29 µM (active)
same,EC50,Protein RecA,6.78 µM (active)
COCCNc1nc(-c2ccccc2Cl)nc2ccccc12,AC50,Cytochrome P450 2C19; read-out: AC50,0.0316 µM (inconclusive)
Cc1n[nH]c2c1C1(CCOCC1)C(C#N)=C(N)O2,AC50,[4],3.57 µM (active)
same,EC50,Protein RecA,2.83 µM (active)
O=C1Nc2ccccc2/C1=N/NS(=O)(=O)c1ccc(C(=O)O)cc1,AC50,Cytochrome P450 2C19,inconclusive
COC1=C(C)C(=O)c2c(c(COC(N)=O)c3n2C[C@@H]2[C@@H]3N2C)C1=O (stereo partly drawn),AC50,Cytochrome P450 2C19; read-out: AC50,0.794 µM (inconclusive)
Cc1ccccc1-c1nc(CN(C)C(C)c2ccon2)c(C)o1 (stereo not drawn),AC50,[4],3.11 µM (active)
same,EC50,Protein RecA,1.15 µM (active)
O=C(CCn1c(=O)[nH]c2ccsc2c1=O)Nc1ccc(F)c(F)c1,AC50,Cytochrome P450 2C9,2.82 µM (inconclusive)
C#CCOc1ccc2c3c(c(=O)oc2c1)CCCC3,CC50,[1],43.7 µM (active)
Cc1cccc(CNc2ncnc3ccc(-c4ccccc4C#N)cc23)c1,AC50,Cytochrome P450 2C9,0.501 µM (inconclusive)
CN1CCN(c2ccc([N+](=O)[O-])cc2C(=O)N2CCOCC2)CC1,AC50,Cytochrome P450 2C19,inconclusive
COc1ccc(C(=O)N2CCCCC2)cc1S(=O)(=O)Nc1ccccc1,AC50,Cytochrome P450 2C9,14.1 µM (inconclusive)
CCOP(=O)(OCC)c1cc(CC)ccc1O,EC50,[5],> 53 µM (inactive)
same,IC50,[6],> 47.1 µM (inactive)
CC(=O)c1ccccc1OCCCOc1cccc2cccnc12,CC50,[1],21.4 µM (active)
COc1cccc(C(=O)NCCN2CCOCC2)c1,AC50,Cytochrome P450 2C19; read-out: AC50,20 µM (inconclusive)
same,AC50,Cytochrome P450 2C9,3.55 µM (inconclusive)
Cc1nc(N2CCOCC2)c(C#N)c(C)c1Br,CC50,[1],30.6 µM (active)
CN(C)c1ccc(-c2nc(NCCc3cnc[nH]3)c3ccccc3n2)cc1,AC50,Cytochrome P450 2C9,0.794 µM (inconclusive)
Cc1cc(C)n(-c2ccc(Cl)c(C(=O)O)n2)n1,AC50,Cytochrome P450 2C19; read-out: AC50,6.31 µM (inconclusive)
same,AC50,Cytochrome P450 2C9,4.47 µM (inconclusive)
O=C(Cc1cc(O)n[nH]1)N/N=C/c1cccc2ccccc12,AC50,[4],4.55 µM (active)
same,EC50,Protein RecA,0.694 µM (active)
C=CCc1cccc(CNc2nc3ccccc3n2C)c1O,CC50,[1],25.9 µM (active)
COc1ccccc1OCC(=O)NCC1CCCN(C(=O)c2ccccc2C(C)=O)C1 (stereo not drawn),EC50,[5],> 53 µM (inactive)
same,IC50,[6],> 47.1 µM (inactive)
NC(=O)[C@H]1CC2(CC(c3cccc(NC(=O)c4ccccc4)c3)=NO2)CN1C(=O)[C@H]1CCC(=O)N1 (stereo partly drawn),AC50,Cytochrome P450 2C19,inconclusive
CC1CCN(CCCn2c(=S)[nH]c3ccc(N4CCOCC4)cc3c2=O)CC1,AC50,Cytochrome P450 2C19,inconclusive
same,AC50,Cytochrome P450 2D6,22.4 µM (inconclusive)
same,AC50,Cytochrome P450 2C9,20 µM (inconclusive)
Cc1ccc(Nc2c(O)ncnc2O)cc1,EC50,[5],> 53 µM (inactive)
same,IC50,[6],> 47.1 µM (inactive)
CC(C)Cn1cnc2c(SCc3ccccc3)nc(N)nc21,EC50,[5],> 53 µM (inactive)
same,IC50,[6],> 47.1 µM (inactive)
Cc1cc(N)n2ncc(-c3cccc(Br)c3)c2n1,CC50,[1],> 50 µM (active)
CC(C)C(NS(=O)(=O)c1cccs1)C(=O)Nc1nc(C(C)(C)C)cs1 (stereo not drawn),CC50,[1],13.5 µM (active)
COc1ccc(-c2cc(C)no2)cc1S(=O)(=O)N1CCN(C(=O)c2ccco2)CC1,EC50,[5],> 53 µM (inactive)
same,IC50,[6],> 47.1 µM (inactive)
N#Cc1cccc(-c2cncnc2NCc2cccs2)c1,AC50,Cytochrome P450 2D6,31.6 µM (inconclusive)
same,AC50,Cytochrome P450 2C9,0.501 µM (inconclusive)
CC1=C(C)CC2(SC1)C(=O)N(c1ccccc1)N=C2N (stereo not drawn),AC50,[4],10.3 µM (active)
same,EC50,Protein RecA,3.4 µM (active)
O=C1C(Cl)=C(N2CCCCC2)C(=O)N1c1ccccc1Cl,AC50,[4],4.64 µM (active)
same,EC50,Protein RecA,2.45 µM (active)
O=[N+]([O-])c1cc(-c2nnc(C34CC5CC(CC(C5)C3)C4)o2)cc([N+](=O)[O-])c1,EC50,[2],0.77 µM (active)
same,EC50,[3],> 60 µM (not active)
same,CC50,[1],> 50 µM (active)
O=P(O)(COc1ccccc1)COc1ccccc1,AC50,Cytochrome P450 2C19; read-out: AC50,28.2 µM (inconclusive)
same,AC50,Cytochrome P450 2C9,14.1 µM (inconclusive)
Cc1nc2cnc(Oc3cccc(Cl)c3)nc2n(Cc2ccc(F)cc2)c1=O,AC50,Cytochrome P450 2C19; read-out: AC50,31.6 µM (inconclusive)
CC(C)(C)C(=O)Nc1ccc(C(=O)OC2CCCCC2)cc1,CC50,[1],37.3 µM (active)
